Laboratory results taken from US20260176320A1, “MODULATORS OF G-PROTEIN COUPLED RECEPTORS” (priority 2018, published 2026).
pEC50: −log10 of the molar value. Read-outs that look alike come from different tables or passages of the source. Square brackets hold non-standard residues; d marks the D form. Peptide text beside a SMILES is read from it. * marks the point of attachment. X1 = O=C(CSCC(=O)*)NCCN1C(=O)c2ccccc2C1=O; Aib = CC(C)(N)C(=O)O

Legend:
Format in all cases: cell-based
GLP-1R [1] = target: T1, GLP-1R (Homo sapiens, UniProt P43220); assay: HitHunter cAMP assay (GLP-1R); details: cAMP; for Emax: read-out: (Emax) GLP-1R
Procedure, shortened: (§1)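 Suspension cells expressing each receptor (10,000 per well) in HBSS with 10 mM HEPES, 625 μM IBMX and 0.2% BSA were treated with a 22-point 2-fold agonist series in duplicate for 30 minutes at room temperature. cAMP was detected by antibody immunocompetition with luminescence read after overnight incubation.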

GIP-R = target: T2, GIP-R (Homo sapiens, UniProt P48546); assay: HitHunter cAMP assay (GIP-R); details: cAMP; for Emax: read-out: (Emax) GIP-R
T2 sequence (P48546 22-466): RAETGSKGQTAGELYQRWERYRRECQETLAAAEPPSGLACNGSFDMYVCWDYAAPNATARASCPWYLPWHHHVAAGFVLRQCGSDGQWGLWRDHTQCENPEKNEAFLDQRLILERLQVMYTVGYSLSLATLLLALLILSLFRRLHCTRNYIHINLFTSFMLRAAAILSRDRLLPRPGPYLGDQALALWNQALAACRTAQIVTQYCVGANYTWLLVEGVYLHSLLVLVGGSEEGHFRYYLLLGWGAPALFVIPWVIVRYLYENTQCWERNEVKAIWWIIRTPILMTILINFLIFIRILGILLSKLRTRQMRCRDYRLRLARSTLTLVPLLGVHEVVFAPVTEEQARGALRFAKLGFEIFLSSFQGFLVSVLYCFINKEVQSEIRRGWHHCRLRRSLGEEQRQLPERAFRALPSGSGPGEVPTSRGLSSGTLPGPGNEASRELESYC
Procedure, shortened: as §1

GLP-1R [2] = target: T1, GLP-1R; assay: PathHunter β-arrestin assay
Method: The effects of the chemical entities described herein on β-arrestin signaling and associated downstream processes (e.g., those delineated above) can be assessed using conventional methods, e.g., PathHunter β-arrestin Assay for determining β-arresting coupling (see Examples section). […] It has been shown that b-arrestin coupling is a key strep in receptor internalization and subsequent de-sensitization and attenuation of signaling.
5,000 cells were seeded in appropriate cell culture media per well in a low volume 384-well tissue culture plate. The assay plate was incubated with cells overnight at 37° C. and 5% CO2. The media was removed, and 5 μL of appropriate cell culture media containing 0.2% BSA was added. Agonist serial dilutions in a separate 384 well dilution plate in a 22-point series of 2× dilutions of agonist in DMSO were performed as follows. 80 μL of the highest concentration of Agonist/DMSO was added to well No. 1. 40 μL was removed from well No. 1, and added to well No. 2, followed by gentle mixing. […] This process was repeated until well No. 22. Additional serial dilutions for additional agonists were set up in a similar manner. 100 nL of each 2× agonist serial dilution was added in duplicate to the designated agonist rows of the assay plate using the Labcyte ECHO. Assay plate was incubated for 90 minutes at 37° C. and 5% CO2. A stock of Working Detection Solution in a separate 15 ml polypropylene tube was prepared by mixing 19 parts of Cell Assay Buffer, 5 parts of Substrate Reagent 1, 1 part Substrate Reagent 2. […] Plates were spun down briefly. Assay plate was incubated for 3 hour at room temperature in the dark for the immunocompetition reaction to occur. Samples were read on Tecan i-control plate reader using luminescence mode with 100 ms integration time. Data analysis was performed using GraphPad Prism.

T1 sequence (P43220 24-463): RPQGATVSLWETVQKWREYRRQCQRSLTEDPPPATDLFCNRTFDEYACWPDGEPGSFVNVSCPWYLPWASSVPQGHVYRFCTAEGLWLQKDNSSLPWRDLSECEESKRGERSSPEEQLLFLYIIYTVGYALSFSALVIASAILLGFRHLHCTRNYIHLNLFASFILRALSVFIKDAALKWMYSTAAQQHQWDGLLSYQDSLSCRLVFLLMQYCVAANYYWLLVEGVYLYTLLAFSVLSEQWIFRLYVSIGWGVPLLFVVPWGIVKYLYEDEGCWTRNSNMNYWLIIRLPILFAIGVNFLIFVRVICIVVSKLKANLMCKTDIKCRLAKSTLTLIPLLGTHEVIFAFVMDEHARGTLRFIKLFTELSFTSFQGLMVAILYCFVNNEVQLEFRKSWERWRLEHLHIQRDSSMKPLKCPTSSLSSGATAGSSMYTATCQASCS

SMILES	Emax (GLP-1R [1]; Table 3A) [%]	EC50 (GLP-1R [1]; Table 3A, read-out: EC50 GLP-1R/nM) [nM]	Emax (GIP-R; Table 3A) [%]	EC50 (GIP-R; Table 3A, read-out: EC50 GIP-R/nM) [nM]	pEC50 (GLP-1R [2]; PathHunter β-arrestin assay, read-out: β-arrestin activity EC50)	EC50 (GLP-1R [1]; EC50 GLP-1R/nM, Table 3) [nM]	EC50 (GLP-1R [1]; EC50 GLP-1R/nM, Table 3A) [nM]	Emax (GLP-1R [1]; Table 3) [%]	EC50 (GIP-R; EC50 GIP-R/nM, Table 3) [nM]	EC50 (GIP-R; EC50 GIP-R/nM, Table 3A) [nM]	Emax (GIP-R; Table 3) [%]	pEC50 (GLP-1R [2])
CCCCCCCCCCCCCCCC(=O)N[C@@H](CCC(=O)NCCCC[C@H](NC(=O)[C@H](CO)NC(=O)[C@@H]1CCCN1C(=O)[C@@H]1CCCN1C(=O)[C@@H]1CCCN1C(=O)[C@H](C)NC(=O)CNC(=O)[C@H](CO)NC(=O)[C@H](CO)NC(=O)[C@@H]1CCCN1C(=O)CNC(=O)CNC(=O)[C@H](C)NC(=O)[C@H](CC(C)C)NC(=O)[C@H](CC(C)C)NC(=O)[C@H](Cc1c[nH]c2ccccc12)NC(=O)[C@H](CC(N)=O)NC(=O)[C@@H](NC(=O)[C@H](Cc1ccccc1)NC(=O)[C@H](CCC(=O)O)NC(=O)C(C)(C)NC(=O)[C@H](C)NC(=O)[C@H](C)NC(=O)[C@H](CCC(N)=O)NC(=O)[C@H](CCCCN)NC(=O)[C@H](CC(=O)O)NC(=O)[C@H](CC(C)C)NC(=O)[C@H](Cc1ccc(O)cc1)NC(=O)[C@@H](NC(=O)[C@H](CO)NC(=O)[C@H](Cc1ccc(O)cc1)NC(=O)[C@H](CC(=O)O)NC(=O)[C@H](CO)NC(=O)[C@@H](NC(=O)[C@H](Cc1ccccc1)NC(=O)[C@@H](NC(=O)CNC(=O)[C@H](CCC(=O)O)NC(=O)[C@H](C)NC(=O)CN1CCCCC1=O)[C@@H](C)O)[C@@H](C)O)[C@@H](C)CC)C(C)C)C(N)=O)C(=O)O [Compound 211]	91	< 0.1	50	0.1 to 1	6.00 to 8.00	–	–	–	–	–	–	–
CC[C@H](C)[C@H](NC(=O)[C@H](CO)NC(=O)[C@H](CC(C)C)NC(=O)[C@H](CC(=O)O)NC(=O)[C@H](CO)NC(=O)[C@@H](NC(=O)[C@H](Cc1ccccc1)NC(=O)[C@@H](NC(=O)CNC(=O)[C@H](CCC(=O)O)NC(=O)CSCC(=O)NCCN1C(=O)c2ccccc2C1=O)[C@@H](C)O)[C@@H](C)O)C(=O)N[C@@H](Cc1ccc(O)cc1)C(=O)N[C@@H](CC(C)C)C(=O)N[C@@H](CC(=O)O)C(=O)N[C@@H](CCCCN)C(=O)N[C@@H](CCC(N)=O)C(=O)N[C@@H](C)C(=O)N[C@@H](C)C(=O)NC(C)(C)C(=O)N[C@@H](CCC(=O)O)C(=O)N[C@@H](Cc1ccccc1)C(=O)N[C@H](C(=O)N[C@@H](CC(N)=O)C(=O)N[C@@H](Cc1c[nH]c2ccccc12)C(=O)N[C@@H](CC(C)C)C(=O)N[C@@H](CC(C)C)C(=O)N[C@@H](C)C(=O)NCC(=O)NCC(=O)N1CCC[C@H]1C(=O)N[C@@H](CO)C(=O)N[C@@H](CO)C(=O)NCC(=O)N[C@@H](C)C(=O)N1CCC[C@H]1C(=O)N1CCC[C@H]1C(=O)N1CCC[C@H]1C(=O)N[C@@H](CO)C(=O)N[C@@H](CCCCN)C(N)=O)C(C)C [Compound 151] (X1-EGTFTSDLSIYLDKQAA[Aib]EFVNWLLAGGPSSGAPPPSK-NH2)	103 to 107	–	117 to 119	–	–	1 to 10	1 to 10	103 to 107	0.1 to 1	0.1 to 1	117 to 119	< 6.00
CCCCCCCCCCCCCCCC(=O)N[C@@H](CCC(=O)NCCCC[C@H](NC(=O)[C@H](CO)NC(=O)[C@@H]1CCCN1C(=O)[C@@H]1CCCN1C(=O)[C@@H]1CCCN1C(=O)[C@H](C)NC(=O)CNC(=O)[C@H](CO)NC(=O)[C@H](CO)NC(=O)[C@@H]1CCCN1C(=O)CNC(=O)CNC(=O)[C@H](C)NC(=O)[C@H](CC(C)C)NC(=O)[C@H](CC(C)C)NC(=O)[C@H](Cc1c[nH]c2ccccc12)NC(=O)[C@H](CC(N)=O)NC(=O)[C@@H](NC(=O)[C@H](Cc1ccccc1)NC(=O)[C@H](CCC(=O)O)NC(=O)C(C)(C)NC(=O)[C@H](C)NC(=O)[C@H](C)NC(=O)[C@H](CCC(N)=O)NC(=O)[C@H](CCCCN)NC(=O)[C@H](CC(=O)O)NC(=O)[C@H](CC(C)C)NC(=O)[C@H](Cc1ccc(O)cc1)NC(=O)[C@@H](NC(=O)[C@H](CO)NC(=O)[C@H](Cc1ccc(O)cc1)NC(=O)[C@H](CC(=O)O)NC(=O)[C@H](CO)NC(=O)[C@@H](NC(=O)[C@H](Cc1ccccc1)NC(=O)[C@@H](NC(=O)CNC(=O)[C@H](CCC(=O)O)NC(=O)CSCC(=O)NCCn1ccc(=O)[nH]c1=O)[C@@H](C)O)[C@@H](C)O)[C@@H](C)CC)C(C)C)C(N)=O)C(=O)O [Compound 239]	100	–	46	–	–	–	0.1 to 1	–	–	10 to 100	–	< 6.00
CCCCCCCCCCCCCCCC(=O)N[C@@H](CCC(=O)NCCCC[C@H](NC(=O)[C@H](CO)NC(=O)[C@@H]1CCCN1C(=O)[C@@H]1CCCN1C(=O)[C@@H]1CCCN1C(=O)[C@H](C)NC(=O)CNC(=O)[C@H](CO)NC(=O)[C@H](CO)NC(=O)[C@@H]1CCCN1C(=O)CNC(=O)CNC(=O)[C@H](C)NC(=O)[C@H](CC(C)C)NC(=O)[C@H](CC(C)C)NC(=O)[C@H](Cc1c[nH]c2ccccc12)NC(=O)[C@H](CC(N)=O)NC(=O)[C@@H](NC(=O)[C@H](Cc1ccccc1)NC(=O)[C@H](CCC(=O)O)NC(=O)C(C)(C)NC(=O)[C@H](C)NC(=O)[C@H](C)NC(=O)[C@H](CCC(N)=O)NC(=O)[C@H](CCCCN)NC(=O)[C@H](CC(=O)O)NC(=O)[C@H](CC(C)C)NC(=O)[C@H](Cc1ccc(O)cc1)NC(=O)[C@@H](NC(=O)[C@H](CO)NC(=O)[C@H](Cc1ccc(O)cc1)NC(=O)[C@H](CC(=O)O)NC(=O)[C@H](CO)NC(=O)[C@@H](NC(=O)[C@H](Cc1ccccc1)NC(=O)[C@@H](NC(=O)CNC(=O)[C@H](CCC(=O)O)NC(=O)CSCC(=O)NCCN1CCC[C@H](O)C1=O)[C@@H](C)O)[C@@H](C)O)[C@@H](C)CC)C(C)C)C(N)=O)C(=O)O [Compound 21]	95	–	20	–	–	< 0.1	< 0.1	95	1 to 10	10 to 100	20	< 6.00
CC[C@H](C)[C@H](NC(=O)[C@H](CO)NC(=O)[C@H](Cc1ccc(O)cc1)NC(=O)[C@H](CC(=O)O)NC(=O)[C@H](CO)NC(=O)[C@@H](NC(=O)[C@H](Cc1ccccc1)NC(=O)[C@@H](NC(=O)CNC(=O)[C@H](CCC(=O)O)NC(=O)CSCC(=O)NCCN1C(=O)c2ccccc2C1=O)[C@@H](C)O)[C@@H](C)O)C(=O)N[C@@H](Cc1ccc(O)cc1)C(=O)N[C@@H](CC(C)C)C(=O)N[C@@H](CC(=O)O)C(=O)N[C@@H](CCC(=O)O)C(=O)N[C@@H](CCC(N)=O)C(=O)N[C@@H](C)C(=O)N[C@@H](C)C(=O)NC(C)(C)C(=O)N[C@@H](CCC(=O)O)C(=O)N[C@@H](Cc1ccccc1)C(=O)N[C@H](C(=O)N[C@@H](CC(N)=O)C(=O)N[C@@H](Cc1c[nH]c2ccccc12)C(=O)N[C@@H](CC(C)C)C(=O)N[C@@H](CC(C)C)C(=O)N[C@@H](C)C(=O)NCC(=O)NCC(=O)N1CCC[C@H]1C(=O)N[C@@H](CO)C(=O)N[C@@H](CO)C(=O)NCC(=O)N[C@@H](C)C(=O)N1CCC[C@H]1C(=O)N1CCC[C@H]1C(=O)N1CCC[C@H]1C(=O)N[C@@H](CO)C(=O)N[C@@H](CCCCN)C(N)=O)C(C)C [compound 150] (X1-EGTFTSDYSIYLDEQAA[Aib]EFVNWLLAGGPSSGAPPPSK-NH2)	–	–	–	–	–	–	–	–	–	–	118 to 130	< 6.00
